Columns and labels:
[1] = tested on: SAMP8 mice; assay: T-maze shock avoidance, acquisition and one-week retention; format: in vivo, mouse; conditions: 12 month-old SAMP8 mice, 1 mg/kg IP every 48 hours for 5 weeks
Procedure: FIG. 1 depicts the effects of a selective A3AR agonist, MRS5980, on learning and memory in 12 month-old SAMP8 mice. The selective A3AR agonist, MRS5980 (1 mg/kg, IP) or vehicle (saline) was given every 48 hours for 5 weeks starting at 12 months of age. Behavioral testing began after 3 weeks of treatment. NORPT—the Novel Object Recognition Protocol Test is a memory task that involves the hippocampus when, as performed herein, the retention interval is 24 hours after initial exposure to the two like objects. Mice received three 5 minutes habituation trials in an empty apparatus separated by 2 hours, the day prior to entry of the objects. During the training session, the mouse was exposed to two similar objects (plastic frogs) which it was allowed to examine for 5 minutes. The apparatus and the objects were cleaned between each trial to remove odor cures. Twenty-four hours later, the mouse was exposed to one of the original objects and a new novel object (plastic bird) and the time spent examining the objects was recorded. The results are expressed as Discrimination index=(Total new−Total old)/Total new+Total old)]. The novel object was made out of the same material as the original object and of the same size, but a different shape. The underlying concept of the NORPT is based on the tendency of mice to spend more time exploring new objects than familiar ones. Thus, the greater the retention/memory at 24 hours, the more time spent with the new object the higher the discrimination. […] Number of attempts before first successful avoidance of the shock in T-maze and retention (memory) for the T-maze one-week later was also determined. Retention was defined as number of trial to successfully avoid the shock 5 out of 6 consecutive trials. […] ANOVA followed by pairwise Tukey's post hoc test. Means±SEM; n=6-8/group; **p<0.01.

[2] = tested on: SAMP8 mice; assay: Novel Object Recognition Protocol Test (NORPT); format: in vivo, mouse; conditions: 12 month-old SAMP8 mice, 1 mg/kg IP every 48 hours for 5 weeks
Procedure: FIG. 1 depicts the effects of a selective A3AR agonist, MRS5980, on learning and memory in 12 month-old SAMP8 mice. The selective A3AR agonist, MRS5980 (1 mg/kg, IP) or vehicle (saline) was given every 48 hours for 5 weeks starting at 12 months of age. Behavioral testing began after 3 weeks of treatment. NORPT—the Novel Object Recognition Protocol Test is a memory task that involves the hippocampus when, as performed herein, the retention interval is 24 hours after initial exposure to the two like objects. Mice received three 5 minutes habituation trials in an empty apparatus separated by 2 hours, the day prior to entry of the objects. During the training session, the mouse was exposed to two similar objects (plastic frogs) which it was allowed to examine for 5 minutes. The apparatus and the objects were cleaned between each trial to remove odor cures. Twenty-four hours later, the mouse was exposed to one of the original objects and a new novel object (plastic bird) and the time spent examining the objects was recorded. The results are expressed as Discrimination index=(Total new−Total old)/Total new+Total old)]. The novel object was made out of the same material as the original object and of the same size, but a different shape. […] Number of attempts before first successful avoidance of the shock in T-maze and retention (memory) for the T-maze one-week later was also determined. […]

[3] = vs old vehicle treated controls

Question: What does the source list for CNC(=O)[C@@]12C[C@@H]1[C@@H](n1cnc3c(NC)nc(C#Cc4ccc(Cl)s4)nc31)[C@H](O)[C@@H]2O [MRS5980]?
Answer: T-maze learning and retention ([1]; old treated mice vs young vehicle treated controls): no difference between the young vehicle treated controls and the old A3AR treated mice; Number of attempts before first successful avoidance of the shock in T-maze (learning) [1, 3]: learned and remembered the T-maze better than the old vehicle treated controls; Retention (memory) for the T-maze one-week later, trials to avoid the shock 5 out of 6 consecutive trials [1, 3]: remembered the T-maze better than the old vehicle treated controls; Discrimination index (memory at 24 hours) in NORPT ([2]; old treated mice vs young mice): no difference between the young mice and the old A3 AR treated mice; Discrimination index (memory at 24 hours) in NORPT ([2]; retention interval 24 hours, vs vehicle treated controls, **p<0.01): significantly better memory than vehicle treated controls
